Test results reported in patent US20250345378A1 (priority 2022, published 2025).
Where two headings read alike, the source gives them in different places.

Assays:
[1] = tested on: 304 E. coli clinical isolates; type: cell-based, Escherichia coli; details: 304-isolate panel
Method: (§1) Phage cocktail CK618 was tested in combination with and alongside antibiotics against two isolate panels. The first assay used a panel of 88 contemporaneous urinary tract infection (UTI) isolates from North America, Europe, Latin America, and Asia. […] The second assay used a panel made up of a 300-strain clinical isolate panel (Table 14) with an additional 4 strains of interest. […] Four of the same SOC antibiotics tested against the 88-isolate panel were tested against this panel. The non-SOC antibiotics were not included due to their limited use in clinical settings, and nitrofurantoin was not included due to the low probability of resistance to this drug.
(§2) For both isolate panels, antibiotic concentrations tested were determined by using Clinical and Laboratory Standards Institute (CLSI) or European Committee on Antimicrobial Susceptibility Testing (EUCAST) breakpoints at concentrations that kill susceptible isolates but allow intermediate or resistant isolates to grow in the standard AST microdilution assay (Table 17).
(§3) The composition of the proposed Phase 2 CRISPR-enhanced bacteriophage (CRISPR-phage, hereafter termed ‘crPhage’) cocktail (CK618) has been updated from the CK570 to include six bacteriophages as compared to three bacteriophages in CK570. Bacteriophage cocktail CK618, was prepared such that all bacteriophages had equivalent titers in the final cocktail. The cocktail was then mixed with bacteria to obtain final titers of 1×10^6 plaque-forming unit (PFU)/mL/phage for the cocktail and 1×10^5 colony-forming unit (CFU)/mL for the bacteria, resulting in a multiplicity of infection (MOI) of 10 for each bacteriophage in a sample. Briefly, 5 μl of each sample (CK618 alone, CK618 and antibiotics, antibiotics alone, or medium alone) was added to 5 μl of optical density (OD)-normalized bacterial isolate and 40 μl LB medium. Reactions were incubated at 37° C. with shaking and OD measurements were taken each hour for 20 hours.
(§4) Host range percentage is the percent of isolates that responded to treatment of antibiotics or CK618. In the case of the 88-isolate panel, results were analyzed on the complete panel as well as the subset of classified as multidrug-resistant (MDR) (n=21) and beta-lactam-resistant (n=31).
(§5) The first assay used a panel of 88 contemporaneous isolates. Twenty-one of those strains are classified as MDR, with resistance to 3 or more antibiotic classes. […] The second assay used the panel made up of a 300-strain clinical isolate panel with an additional 4 strains of interest.
(§6) Antibiotic concentrations tested were determined by using CLSI or EUCAST breakpoints at concentrations that kill susceptible strains but allow intermediate or resistant strains to grow in the standard AST microdilution assay (Table 27). LBP-EC01 v.2 was combined with bacteria resulting in a MO of 10 for each bacteriophage in a sample. In the case of the 88-isolate panel, results were analyzed on the complete panel as well as the subset of isolates classified as multidrug-resistant (MDR) (n=21) and beta-lactam-resistant (n=31).

[2] = tested on: 88 urinary tract infection E. coli isolates; type: cell-based, Escherichia coli; details: for Host Range % on MDR Subset (n = 21), Combination: Antibiotic + LBP-EC01 v.2 / Host Range % on all Strains (n = 88), Combination: Antibiotic + LBP-EC01 v.2 / Host Range % on Beta-lactam-Resistant Subset (n = 31), Combination: Antibiotic + LBP-EC01 v.2: antibiotic combined with LBP-EC01 v.2; for Host Range % on all Strains (n = 88), Combination: Antibiotic + CK618 v.2: antibiotic at breakpoint concentration plus cocktail 1 × 10^6 PFU/ml per bacteriophage
Method: as §1, §2, §3, §4, §5, §6

[3] = 88-isolate panel, MDR subset, single agent
[4] = 88-isolate panel, all strains, single agent
[5] = 88-isolate panel, beta-lactam-resistant subset
[6] = 88-isolate panel, beta-lactam-resistant subset, single agent
[7] = antibiotic at breakpoint concentration (Table 17), cocktail 1 × 10^6 PFU/ml per bacteriophage, MOI 10

SMILES | Host range % on MDR subset (n = 93), Combination: Antibiotic + LBP-CK618 [1] | Host range % on MDR subset (n = 93), Single agent treatment [1] | Host range % on beta-lactam-resistant subset (n = 91), Combination: Antibiotic + LBP-CK618 [1] | Host range % on beta-lactam-resistant subset (n = 91), Single agent treatment [1] | Host Range % on MDR Subset (n = 93), Combination Antibiotic + LBP-EC01 v.2 ([1]; MDR subset, antibiotic combined with LBP-EC01 v.2) | Host Range % on all Strains (n = 304), Single agent treatment ([1]; all strains, single agent) | Host Range % on Beta-lactam-Resistant Subset (n = 91), Combination: Antibiotic + LBP-EC01 v.2 ([1]; beta-lactam-resistant subset, antibiotic combined with LBP-EC01 v.2) | Host range % on beta-lactam-resistant subset (n = 91), Single agent treatment ([1]; beta-lactam-resistant subset, single agent) | Host Range % on Beta-lactam-Resistant Subset (n = 31), Combination: Antibiotic + CK618 v.2 ([2]; 88-isolate panel) | Host Range % on Beta-lactam-Resistant Subset (n = 31), Single agent treatment ([2]; 88-isolate panel) | Host Range % on MDR Subset (n = 21), Combination: Antibiotic + CK618 v.2 ([2]; 88-isolate panel) | Host Range % on MDR Subset (n = 21), Single agent treatment ([2]; 88-isolate panel) | Host Range % on MDR Subset (n = 21), Combination: Antibiotic + LBP-EC01 v.2 ([2]; 88-isolate panel, MDR subset) | Host Range % on MDR Subset (n = 21), Single agent treatment [2, 3] | Host Range % on all Strains (n = 88), Combination: Antibiotic + LBP-EC01 v.2 ([2]; 88-isolate panel, all strains) | Host Range % on all Strains (n = 88), Single agent treatment [2, 4] | Host Range % on Beta-lactam-Resistant Subset (n = 31), Combination: Antibiotic + LBP-EC01 v.2 [2, 5] | Host Range % on Beta-lactam-Resistant Subset (n = 31), Single agent treatment [2, 6] | Host Range % on all Strains (n = 88), Single agent treatment [2, 7] | Host Range % on all Strains (n = 88), Combination: Antibiotic + CK618 v.2 [2]
CC1=C(C(=O)O)N2C(=O)[C@@H](NC(=O)[C@H](N)c3ccccc3)[C@H]2SC1 [Cephalexin] | 79.6% | 24.7% | 79.1% | 8.8% | 79.6% | 57.6% | 79.1% | 8.8% | 81.7% | 11.8% | 76.2% | 14.3% | 76.2% | 14.3% | 87.9% | 49.2% | 81.7% | 11.8% | 49.2% | 87.9%
C=CC1=C(C(=O)O)N2C(=O)[C@@H](NC(=O)/C(=N\O)c3csc(N)n3)[C@H]2SC1 [Cefdinir] |  |  |  |  |  |  |  |  | 78.5% | 12.9% | 74.6% | 14.3% | 74.6% | 14.3% | 87.5% | 48.9% | 78.5% | 12.9% | 48.9% | 87.5%
CO/N=C(\C(=O)N[C@@H]1C(=O)N2C(C(=O)O)=C(CSc3nc(=O)c(=O)[nH]n3C)CS[C@H]12)c1csc(N)n1 [Ceftriaxone] |  |  |  |  |  |  |  |  | 81.7% | 15.1% | 77.8% | 20.6% | 77.8% | 20.6% | 92.4% | 64.4% | 81.7% | 15.1% | 64.4% | 92.4%
O=C1CN(/N=C/c2ccc([N+](=O)[O-])o2)C(=O)N1 [Nitrofurantoin] |  |  |  |  |  |  |  |  | 97.8% | 90.3% | 98.4% | 85.7% | 98.4% | 85.7% | 93.9% | 83.0% | 97.8% | 90.3% | 83.0% | 93.9%
